Measured values: article PMC5589878, “Development of Fluorescent Probes that Target Serotonin 5-HT2B Receptors” (Scientific Reports, 2017)

Key:
[1] = biological target: T1, 5-HT2B receptors (Homo sapiens, UniProt P41595); type: cell-based; conditions: 3 μM, 10 min at 37 °C; image analysis and plate reader; p < 0.001
Method: Having finished the preliminary photophysical and pharmacological characterization of the fluorescent derivatives 12a–i, their potential to specifically label 5-HT2B receptors in live cells was evaluated. Chinese hamster ovary K1 (CHO-K1) cells and CHO-K1 cells stably expressing the human serotonin 5-HT2B receptor (CHO-K1-5-HT2B), growing in 96-well plates, were incubated with at least three different concentrations of each compound for varying times and, after compound removal and washing of the cells, plates were subjected to fluorescence microscopy using a high content imaging instrument and the appropriate excitation and emission filter set for each compound.
For cell labelling studies, cells were plated onto 96-well plates (Cell Carrier; Perkin-Elmer, Waltham, MA, USA) pre-treated with poly-D-lysine hydrobromide 0.1 mg/mL (Sigma Aldrich, Spain) at a density of 10000 cells/well and cultured for 24 h. […] Fluorescence images were acquired using an Operetta high content imaging instrument (Perkin-Elmer, Waltham, MA, USA) at 20x and 40x magnification, at excitation wavelengths of 520–550 nm and emission wavelengths of 560–630 nm (standard 5-TAMRA filter set) for compound 12i, and excitation wavelengths of 360–400 nm and emission wavelengths of 410–480 nm for Hoechst 33342 (standard Hoechst 33342 filter set). […]

[2] = biological target: T1, 5-HT2B receptors; test: Functional assay of IPs accumulation at human 5-HT2B receptors; type: cell-based
Method: After 24 h, growth medium was replaced by serum-free medium containing 10 μCi/mL [^3H]myo-inositol (20.3 Ci/mmol, Perkin-Elmer) for 24 h. […] After the incubation time, assay buffer was discarded and 200 μL of 100 mM formic acid was added to the cells for 30 min at 4 °C and 20 μL of the lysate were transferred to a flexiplate plate (Perkin-Elmer, Waltham, MA, USA) together with 80 μL of a solution of RNA Binding YSi SPA Beads (Perkin-Elmer, Waltham, MA, USA) to measure accumulation of [^3H]IPs (IP1,IP2, and IP3, collectively referred to as IPs).

[3] = biological target: T1, 5-HT2B receptors; test: Radioligand competition binding assay at human 5-HT2B receptors
[4] = biological target: T2, 5-HT2A receptors (Homo sapiens, UniProt P28223); test: Radioligand competition binding assay at human 5-HT2A receptors; design: expressed in transfected cells; host or cells: CHO-FA4-5-HT2A cells (membranes)
[5] = biological target: T2, 5-HT2A receptors; test: Labelling of 5-HT2A receptors in live CHO-FA4-5-HT2A cells (fluorescence microscopy, plate reader); type: cell-based; design: expressed in transfected cells; host or cells: CHO-FA4-5-HT2A cells (live)
Method: The specificity and sensitivity of the 12i probe towards 5-HT2B receptors over other 5-HT2 receptor subtypes was evaluated by performing similar labelling experiments in CHO cells stably expressing 5-HT2A receptors (CHO-FA4-5-HT2A). […] However, even in these conditions (20 μM concentration of 12i) the signal window over background achieved for 5-HT2A labelling was considerably smaller than that detected in the case of 5-HT2B labelling at a concentration of 12i more than 6 times lower (3 μM) (Fig. 9 and Supplementary Figure S3).
For cell labelling studies, cells were plated onto 96-well plates (Cell Carrier; Perkin-Elmer, Waltham, MA, USA) pre-treated with poly-D-lysine hydrobromide 0.1 mg/mL (Sigma Aldrich, Spain) at a density of 10000 cells/well and cultured for 24 h. […] Fluorescence images were acquired using an Operetta high content imaging instrument (Perkin-Elmer, Waltham, MA, USA) at 20x and 40x magnification, at excitation wavelengths of 520–550 nm and emission wavelengths of 560–630 nm (standard 5-TAMRA filter set) for compound 12i, and excitation wavelengths of 360–400 nm and emission wavelengths of 410–480 nm for Hoechst 33342 (standard Hoechst 33342 filter set).
The fluorescence intensity of the cells labelled with compound 12i was quantified by image analysis of the acquired images using Harmony v3.5 software (Perkin-Elmer). […]

[6] = Absorption and emission spectra (photophysical properties); type: physicochemical; conditions: 10 μM solutions
Method: The absorption and emission spectra of the fluorescent 5-HT2 ligands (10 and 12) were determined on 10 μM solutions. The most relevant fluorescent properties are collected in Fig. 5. All of the synthesized derivatives emitted fluorescence in the visible region of the spectrum, with selected fluorescent tags (Fig. 4) providing distinctive properties and excitation wavelengths. The excitation wavelengths varied from 305 to 555 nm, whereas those for emission varied from 398 to 580 nm.

[7] = biological target: T3, human 5-HT2C receptors (Homo sapiens, UniProt P28335); test: Radioligand competition binding assay at human 5-HT2C receptors
T3 construct: expressed in transfected cells; host or cells: HeLa-5-HT2C cells (membranes)
T3 sequence (P28335 33-458): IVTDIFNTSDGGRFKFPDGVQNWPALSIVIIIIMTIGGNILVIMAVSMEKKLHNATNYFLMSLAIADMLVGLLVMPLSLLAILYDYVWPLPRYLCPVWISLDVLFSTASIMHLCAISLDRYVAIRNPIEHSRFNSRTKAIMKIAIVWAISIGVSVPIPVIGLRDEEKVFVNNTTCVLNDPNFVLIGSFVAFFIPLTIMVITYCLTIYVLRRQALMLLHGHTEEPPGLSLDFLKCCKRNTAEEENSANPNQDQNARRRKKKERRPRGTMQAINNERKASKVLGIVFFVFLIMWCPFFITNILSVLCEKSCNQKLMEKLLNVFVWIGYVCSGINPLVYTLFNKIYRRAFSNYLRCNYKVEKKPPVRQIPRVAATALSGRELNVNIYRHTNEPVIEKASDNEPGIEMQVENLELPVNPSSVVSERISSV

[8] = test system: tumor necrosis factor alpha (TNF-α); conditions: primary aortic smooth muscle cells and animal models; cited from earlier work

T1 sequence (P41595 whole entry): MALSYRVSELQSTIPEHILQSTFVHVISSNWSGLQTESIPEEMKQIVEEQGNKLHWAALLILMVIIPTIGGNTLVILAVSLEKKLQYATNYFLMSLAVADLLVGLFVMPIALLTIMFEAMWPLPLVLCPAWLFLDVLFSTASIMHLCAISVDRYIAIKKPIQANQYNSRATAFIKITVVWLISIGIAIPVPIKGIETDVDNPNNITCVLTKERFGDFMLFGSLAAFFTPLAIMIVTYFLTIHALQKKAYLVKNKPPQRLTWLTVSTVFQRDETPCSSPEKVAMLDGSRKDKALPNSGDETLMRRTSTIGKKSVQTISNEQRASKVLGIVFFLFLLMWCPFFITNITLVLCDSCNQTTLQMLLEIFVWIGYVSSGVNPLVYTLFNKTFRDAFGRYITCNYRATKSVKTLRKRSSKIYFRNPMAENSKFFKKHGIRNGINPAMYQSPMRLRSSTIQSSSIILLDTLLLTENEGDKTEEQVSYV
T2 sequence (P28223 whole entry): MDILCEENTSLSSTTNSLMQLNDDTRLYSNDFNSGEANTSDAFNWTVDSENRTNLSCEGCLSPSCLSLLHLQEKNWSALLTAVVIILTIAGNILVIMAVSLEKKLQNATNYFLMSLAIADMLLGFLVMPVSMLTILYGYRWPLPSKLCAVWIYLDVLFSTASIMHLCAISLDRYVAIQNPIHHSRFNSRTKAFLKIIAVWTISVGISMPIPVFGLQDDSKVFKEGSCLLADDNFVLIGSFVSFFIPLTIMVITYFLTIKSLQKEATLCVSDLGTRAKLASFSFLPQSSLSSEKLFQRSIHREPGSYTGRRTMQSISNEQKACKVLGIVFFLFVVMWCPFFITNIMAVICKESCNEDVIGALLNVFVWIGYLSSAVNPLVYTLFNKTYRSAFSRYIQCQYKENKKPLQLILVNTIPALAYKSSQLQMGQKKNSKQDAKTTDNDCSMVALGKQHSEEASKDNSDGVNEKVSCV

SMILES: CCN(CC)c1ccc2c(-c3ccccc3C(=O)NCCC(=O)NCCC(=O)NCCCOCCOCCOCCCNC(=O)CCCOc3cc(I)c(OC)cc3CC(C)N)c3ccc(=[N+](CC)CC)cc-3oc2c1 (stereo not shown) [12i, N-(9-(2-((26-(2-(2-aminopropyl)-5-iodo-4-methoxyphenoxy)-3,7,23-trioxo-12,15,18-trioxa-4,8,22-triazahexacosyl)carbamoyl)phenyl)-6-(diethylamino)-3H-xanthen-3-ylidene)-N-ethylethanaminium]
- fluorescence intensity of CHO-K1-5-HT2B cell wells versus control CHO-K1 cell wells [1]: clearly superior
- EC50 [2]: 225 nM
- Ki [3]: 262 nM
- Ki [4]: 1220 nM
- specific labelling of 5-HT2A receptors in CHO-FA4-5-HT2A cells ([5]; 3 μM): no statistically significant specific labelling
- specific labelling of 5-HT2A receptors in CHO-FA4-5-HT2A cells ([5]; 20 μM): certain specific labelling
- melting point: 151 to 153 °C
- Δλ (Stokes shift) [6]: 25 nm
- εmax [6]: 78828 M⁻¹ cm⁻¹
- λmax Abs [6]: 555 nm
- λmax Em [6]: 580 nm
- Ki [7]: 994 nM

SMILES: COc1cc(CC(C)N)c(OC)cc1I (stereo not shown) [DOI, 1-(2,5-Dimethoxy-4-iodophenyl)-propan-2-amine, reference compound]
- EC50 [2]: 11.7 nM
- Ki [3]: 48.2 nM
- potency of blockade of the pro-inflammatory effects of TNF-α [8]: ≈ 15 pM
- Ki [7]: 18.2 nM
